# Data reported in US20140135310A1, “SULPHONAMIDE DERIVATIVES OF ALICYCLIC AMINES FOR THE TREATMENT OF CENTRAL NERVOUS SYSTEM DISEASES” (Adamed Sp. z o.o., priority 2011, published 2014).
# How the values were obtained:
# [1] = molecular target: dopaminergic receptors D2 (Homo sapiens, UniProt P14416); assay: Radioligand binding assay, dopaminergic D2 receptors; settings: binding assay, test compound 1×10^−6 M
# Procedure, shortened: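 Radioligand displacement was measured by scintillation counting, with non-specific binding defined in the presence of excess unlabelled ligand. Competition curves were fitted to the Hill equation to give IC50, and Ki was derived by the Cheng–Prusoff equation.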
# [2] = molecular target: T1, 5-HT1A receptor (rat hippocampus) (Rattus norvegicus, UniProt P19327); assay: Radioligand binding assay, serotoninergic 5-HT1A receptors; settings: binding assay result in %, Table 5a;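 also: test compound at 1 µM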
# T1 construct: hippocampus; from tissue; host or cells: rat hippocampus
# T1 sequence (P19327 1-422): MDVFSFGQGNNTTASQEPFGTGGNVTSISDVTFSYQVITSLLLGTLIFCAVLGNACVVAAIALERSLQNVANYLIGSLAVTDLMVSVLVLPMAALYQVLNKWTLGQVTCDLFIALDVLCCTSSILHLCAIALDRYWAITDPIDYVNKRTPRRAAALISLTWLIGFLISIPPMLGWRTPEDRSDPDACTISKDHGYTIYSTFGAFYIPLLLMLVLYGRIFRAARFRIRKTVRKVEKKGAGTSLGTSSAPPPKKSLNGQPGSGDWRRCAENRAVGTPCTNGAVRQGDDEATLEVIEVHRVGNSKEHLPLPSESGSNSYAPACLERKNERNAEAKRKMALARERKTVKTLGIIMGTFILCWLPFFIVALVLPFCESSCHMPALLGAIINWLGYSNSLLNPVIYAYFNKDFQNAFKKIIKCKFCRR
# [3] = molecular target: T2, serotonin transporter (SERT) (Homo sapiens, UniProt P31645); assay: Radioligand binding assay, serotonin transporter (SERT); settings: binding assay, test compound 1×10^−6 M
# T2 construct: expressed in transfected cells; host or cells: CHO cells
# T2 sequence (P31645 whole entry): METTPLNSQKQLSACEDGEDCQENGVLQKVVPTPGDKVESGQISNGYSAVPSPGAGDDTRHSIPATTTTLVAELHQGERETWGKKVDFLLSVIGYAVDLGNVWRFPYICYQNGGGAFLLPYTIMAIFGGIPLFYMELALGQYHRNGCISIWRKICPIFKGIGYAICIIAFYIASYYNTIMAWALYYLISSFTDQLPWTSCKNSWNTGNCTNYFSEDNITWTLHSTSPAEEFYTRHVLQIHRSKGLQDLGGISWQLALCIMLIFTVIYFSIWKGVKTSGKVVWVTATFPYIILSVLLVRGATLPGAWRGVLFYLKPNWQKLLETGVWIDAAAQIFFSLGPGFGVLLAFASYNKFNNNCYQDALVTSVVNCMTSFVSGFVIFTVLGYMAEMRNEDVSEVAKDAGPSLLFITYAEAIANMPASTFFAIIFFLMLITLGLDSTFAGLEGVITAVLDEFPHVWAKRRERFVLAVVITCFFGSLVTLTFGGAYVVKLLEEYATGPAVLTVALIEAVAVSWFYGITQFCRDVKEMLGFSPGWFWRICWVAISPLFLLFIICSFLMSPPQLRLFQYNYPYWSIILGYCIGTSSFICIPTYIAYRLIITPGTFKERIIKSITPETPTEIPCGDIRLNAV
# Procedure, shortened: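 Radioligand competition binding with scintillation detection; specific binding is total minus binding under excess unlabelled ligand. Reported as % of control specific binding or % inhibition; IC50 from Hill-equation non-linear regression of competition curves, and Ki via Cheng-Prusoff using radioligand concentration and Scatchard-derived KD.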
# 5-HT7 receptor = molecular target: T3, 5-HT7 receptor (Homo sapiens, UniProt P34969); assay: Radioligand binding assay, serotoninergic 5-HT7 receptors; settings: binding assay result in %, Table 5a;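 also: test compound at 1 µM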
# T3 construct: purchased PerkinElmer
# T3 sequence (P34969 whole entry): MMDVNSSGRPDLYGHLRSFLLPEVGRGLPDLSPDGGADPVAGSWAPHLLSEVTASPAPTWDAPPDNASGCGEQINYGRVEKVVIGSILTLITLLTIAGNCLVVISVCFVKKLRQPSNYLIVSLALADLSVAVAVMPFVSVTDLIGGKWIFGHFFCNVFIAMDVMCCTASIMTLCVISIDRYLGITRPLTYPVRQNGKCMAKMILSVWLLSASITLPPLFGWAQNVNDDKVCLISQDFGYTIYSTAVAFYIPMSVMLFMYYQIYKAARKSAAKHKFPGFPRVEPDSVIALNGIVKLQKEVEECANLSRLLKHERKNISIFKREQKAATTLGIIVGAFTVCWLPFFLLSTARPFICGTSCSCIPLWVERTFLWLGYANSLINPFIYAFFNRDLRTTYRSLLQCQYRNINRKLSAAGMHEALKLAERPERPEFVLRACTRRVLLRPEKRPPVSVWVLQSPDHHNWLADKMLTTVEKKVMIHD
# Procedure, shortened: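 Competition binding at human 5-HT7 receptors with a radioligand, detected by scintillation counting; non-specific binding was defined with excess unlabelled ligand. IC50 came from Hill-equation fits of competition curves, and Ki from Cheng–Prusoff using radioligand concentration and Scatchard-derived KD.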
# [4] = system: α1 adrenergic receptors (rat cerebral cortex); assay: Radioligand binding assay, adrenergic α1 receptors; settings: test compound 1×10^−6 M
# Procedure, shortened: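 Values derive from radioligand displacement, with non-specific binding defined by excess cold ligand and detection by scintillation. Hill-fit IC50s were converted to Ki via Cheng-Prusoff using Scatchard-derived Kd; percent inhibition of control specific binding also reported.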
# 5-HT6 receptor = molecular target: T4, 5-HT6 receptor (Homo sapiens, UniProt P50406); assay: Radioligand binding assay, serotoninergic 5-HT6 receptors; settings: binding assay result in %, Table 5a;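 also: test compound at 1 µM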
# T4 construct: purchased PerkinElmer
# T4 sequence (P50406 whole entry): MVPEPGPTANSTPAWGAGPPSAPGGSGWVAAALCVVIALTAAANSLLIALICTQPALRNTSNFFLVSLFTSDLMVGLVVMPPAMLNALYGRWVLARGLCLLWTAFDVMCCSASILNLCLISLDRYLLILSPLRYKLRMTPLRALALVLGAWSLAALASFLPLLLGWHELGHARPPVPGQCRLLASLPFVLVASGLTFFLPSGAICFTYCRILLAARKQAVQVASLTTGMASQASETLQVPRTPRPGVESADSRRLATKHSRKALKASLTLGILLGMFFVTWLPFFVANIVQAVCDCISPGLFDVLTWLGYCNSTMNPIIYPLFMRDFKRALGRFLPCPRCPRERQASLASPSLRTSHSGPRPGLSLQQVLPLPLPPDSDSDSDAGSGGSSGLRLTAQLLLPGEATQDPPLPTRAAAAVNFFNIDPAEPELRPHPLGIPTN
# Procedure, shortened: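 Values are Ki from Cheng–Prusoff, taking IC50 from Hill nonlinear regression of competition curves and KD from a Scatchard plot. Specific binding was total minus binding with excess unlabelled ligand. Radioligand displacement was detected by scintillation counting, and data were also reported as percent of control specific binding.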
# 5-HT2A receptor = molecular target: T5, 5-HT2A receptor (Homo sapiens, UniProt P28223); assay: Radioligand binding assay, serotoninergic 5-HT2A receptors; settings: binding assay result in %, Table 5a
# T5 construct: purchased PerkinElmer
# T5 sequence (P28223 whole entry): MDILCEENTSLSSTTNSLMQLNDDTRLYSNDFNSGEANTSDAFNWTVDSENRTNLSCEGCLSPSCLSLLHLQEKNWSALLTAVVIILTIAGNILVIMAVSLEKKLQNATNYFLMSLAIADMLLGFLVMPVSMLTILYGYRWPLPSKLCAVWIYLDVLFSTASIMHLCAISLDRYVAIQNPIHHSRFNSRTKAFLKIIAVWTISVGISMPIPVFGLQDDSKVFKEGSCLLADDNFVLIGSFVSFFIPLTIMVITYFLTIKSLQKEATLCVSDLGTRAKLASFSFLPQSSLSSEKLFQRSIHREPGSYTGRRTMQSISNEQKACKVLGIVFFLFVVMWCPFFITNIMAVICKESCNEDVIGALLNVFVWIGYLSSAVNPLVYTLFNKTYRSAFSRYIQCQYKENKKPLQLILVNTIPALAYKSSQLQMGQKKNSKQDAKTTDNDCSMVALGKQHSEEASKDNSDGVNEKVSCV
# Procedure, shortened: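 Radioligand competition binding with scintillation counting; nonspecific binding defined by excess unlabelled ligand. Data as percent inhibition of control specific binding. IC50 by Hill-equation fit of competition curves; Ki by Cheng-Prusoff, with radioligand Kd from Scatchard plot.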
# [5] = molecular target: dopaminergic receptors D3 (Homo sapiens, UniProt P35462); assay: Radioligand binding assay, dopaminergic D3 receptors; settings: test compound 1×10^−6 M
# Sequence of dopaminergic receptors D3 (P35462 whole entry): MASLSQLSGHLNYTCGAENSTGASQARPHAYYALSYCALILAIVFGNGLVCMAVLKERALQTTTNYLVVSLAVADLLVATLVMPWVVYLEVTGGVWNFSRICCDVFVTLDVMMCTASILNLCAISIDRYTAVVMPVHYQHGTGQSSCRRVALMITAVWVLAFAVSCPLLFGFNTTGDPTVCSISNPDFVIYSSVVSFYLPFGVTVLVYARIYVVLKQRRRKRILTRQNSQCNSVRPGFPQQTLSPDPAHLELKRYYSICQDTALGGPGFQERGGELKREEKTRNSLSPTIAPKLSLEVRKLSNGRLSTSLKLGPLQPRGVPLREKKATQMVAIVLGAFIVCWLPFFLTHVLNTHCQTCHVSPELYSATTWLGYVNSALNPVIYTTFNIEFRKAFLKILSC
# Procedure, shortened: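 Competition radioligand binding at human D2, D3 and D4.4 receptors, detected by scintillation counting; nonspecific binding defined with excess unlabelled ligand. Results as percent inhibition of control specific binding; IC50 by Hill-equation nonlinear regression; Ki via Cheng-Prusoff, with radioligand KD from Scatchard plot.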
# Sequence of dopaminergic receptors D2 (P14416 whole entry): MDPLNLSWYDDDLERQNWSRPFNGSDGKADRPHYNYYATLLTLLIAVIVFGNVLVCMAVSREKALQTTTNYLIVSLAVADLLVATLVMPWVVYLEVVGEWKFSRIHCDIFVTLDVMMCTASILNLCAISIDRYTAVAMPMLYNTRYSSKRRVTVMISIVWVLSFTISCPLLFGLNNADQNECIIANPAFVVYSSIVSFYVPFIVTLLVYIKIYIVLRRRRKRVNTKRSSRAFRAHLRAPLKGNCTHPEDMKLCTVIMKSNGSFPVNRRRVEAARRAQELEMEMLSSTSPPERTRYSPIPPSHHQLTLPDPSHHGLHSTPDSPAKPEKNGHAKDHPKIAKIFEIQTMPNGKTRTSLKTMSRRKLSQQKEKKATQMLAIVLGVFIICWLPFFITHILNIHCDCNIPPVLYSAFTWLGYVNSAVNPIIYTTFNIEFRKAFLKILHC
Structure (SMILES),inhibition at 1 µM [1],inhibition at 1 µM [2],inhibition at 1 µM [3],inhibition at 1 µM (5-HT7 receptor),α1 [%] [4],inhibition at 1 µM (5-HT6 receptor),inhibition at 1 µM (5-HT2A receptor),inhibition at 1 µM [5],D2 [%] [1],5-HT1A [%] [2],SERT [%] [3],5-HT7 [%] (5-HT7 receptor),5-HT6 [%] (5-HT6 receptor),5-HT2A [%] (5-HT2A receptor),D3 [%] [5]
"Cc1c(S(=O)(=O)NCC2CCN(CCOc3cccc4ccccc34)C2)sc2ccc(F)cc12 (centres unmarked) [Compound 271, 5-Fluoro-3-methyl-N-[[1-[2-(1-naphthyloxy)ethyl]pyrrolidin-3-yl]methyl]benzothiophene-2-sulphonamide]",45%,82%,40%,104%,−1%,76%,97%,93%,,,,,,,
"O=S(=O)(NCC1CCN(CCOc2cccc3ccccc23)C1)c1cc2ccccc2s1 (centres unmarked) [Compound 268, N-[[1-[2-(1-Naphthyloxy)ethyl]pyrrolidin-3-yl]methyl]benzothiophene-2-sulphonamide]",54%,77%,85%,88%,9%,84%,82%,93%,,,,,,,
"O=S(=O)(NCC1CN(CCCc2c[nH]c3ccc(F)cc23)C1)c1ccc2ccccc2c1 [Compound 160, N-[[1-[3-(5-Fluoro-1H-indol-3-yl)propyl]azetidin-3-yl]methyl]naphthalene-2-sulphonamide]",86%,76%,100%,75%,49%,83%,97%,87%,,,,,,,
"Cc1cccc(S(=O)(=O)NC2CCN(CCOc3cccc4[nH]ccc34)CC2)c1 [Compound 56, N-[1-[2-(1H-Indol-4-yloxy)ethyl]-4-piperidine]-3-methylbenzene-sulphonamide]",,,,,74%,,,,34%,75%,15%,106%,36%,84%,98%
"O=S(=O)(NCC1CN(CCOc2cccc3c2OCCO3)C1)c1csc2ccccc12 [Compound 190, N-[[1-[2-(2,3-Dihydro-1,4-benzodioxin-5-yloxy)ethyl]azetidin-3-yl]methyl]-benzothiophene-3-sulphonamide]",51%,100%,31%,97%,86%,34%,68%,62%,,,,,,,
"O=S(=O)(NC1CCN(CCOc2cccc3[nH]ccc23)C1)c1ccc2ccccc2c1 (centres unmarked) [Compound 54, N-[1-[2-(1H-Indol-4-yloxy)ethyl]pyrrolidin-3-yl]naphthalene-2-sulphonamide]",83%,90%,46%,102%,90%,87%,88%,105%,,,,,,,
"O=S(=O)(NCC1CN(CCOc2cccc3c2OCCO3)C1)c1ccc2ccccc2c1 [Compound 177, N-[[1-[2-(2,3-Dihydro-1,4-benzodioxin-5-yloxy)ethyl]azetidin-3-yl]methyl]-naphthalene-2-sulphonamide]",13%,97%,25%,88%,55%,44%,66%,42%,,,,,,,
"O=S(=O)(NC1CCN(CCCc2noc3cc(F)ccc23)CC1)c1ccc2cc(Cl)ccc2c1 [Compound 325, 6-Chloro-N-[1-[3-(6-fluoro-1,2-benzoxazol-3-yl)propyl]-4-piperidyl]naphthalene-2-sulphonamide]",91%,80%,21%,89%,76%,72%,92%,59%,,,,,,,
"O=S(=O)(NC1CN(CCOc2cccc3c2OCCO3)C1)c1cccc(Cl)c1 [Compound 91, 3-Chloro-N-[1-[2-(2,3-dihydro-1,4-benzodioxan-8-yloxy)ethyl]azetidin-3-yl]benzenesulphonamide]",,,,,−15%,,,,15%,88%,−4%,91%,−20%,47%,−8%
"O=S(=O)(NCC1CN(CCOc2cccc3ccccc23)C1)c1ccc(F)c(Cl)c1 [Compound 172, 3-Chloro-4-fluoro-N-[[1-[2-(1-naphthyloxy)ethyl]azetidin-3-yl]methyl]-benzenesulphonamide]",76%,85%,46%,92%,40%,96%,71%,100%,,,,,,,
